What was measured:
LNCaP [1] = assay: Concentration required to inhibit growth of human LNCaP prostate cancer cells; type: functional
LNCaP [2] = assay: Concentration required to inhibit human LNCaP prostate carcinoma cells; type: functional, cell-based

IC50 (LNCaP [2]): 5.5 µM
Compound: CC1=C(/C=C/C(C)=C/C=C/C(C)=C/C(=O)Nc2ccc(O)cc2)C(C)(C)CCC1n1ccnc1 (configuration not stated)
Growth inhibition (LNCaP [1]): 5 µM

From ChEMBL document CHEMBL1140349, “A new simple and high-yield synthesis of suberoylanilide hydroxamic acid and its inhibitory effect alone or in combination with retinoids on proliferation of human prostate cancer cells” (J Med Chem, 2005)
